Test results taken from US5420027A, “Methods and compositions for the expression of biologically active fusion proteins comprising a eukaryotic cytochrome P450 fused to a reductase in bacteria” (Board of Regents, The University of Texas System, priority 1992, dated 1995).
Where two headings read alike, the source gives them in different places.

Tests used:
[1] = molecular target: T1, bovine P450 17A1- rat liver reductase fusion protein (UniProt P00388+P05185, W2A); assay: Steroid metabolism by bovine P450 17A1-rat liver reductase fusion protein with NADPH
T1 sequence (P05185+P00388 with tags, fused parts or gaps P05185:W2A): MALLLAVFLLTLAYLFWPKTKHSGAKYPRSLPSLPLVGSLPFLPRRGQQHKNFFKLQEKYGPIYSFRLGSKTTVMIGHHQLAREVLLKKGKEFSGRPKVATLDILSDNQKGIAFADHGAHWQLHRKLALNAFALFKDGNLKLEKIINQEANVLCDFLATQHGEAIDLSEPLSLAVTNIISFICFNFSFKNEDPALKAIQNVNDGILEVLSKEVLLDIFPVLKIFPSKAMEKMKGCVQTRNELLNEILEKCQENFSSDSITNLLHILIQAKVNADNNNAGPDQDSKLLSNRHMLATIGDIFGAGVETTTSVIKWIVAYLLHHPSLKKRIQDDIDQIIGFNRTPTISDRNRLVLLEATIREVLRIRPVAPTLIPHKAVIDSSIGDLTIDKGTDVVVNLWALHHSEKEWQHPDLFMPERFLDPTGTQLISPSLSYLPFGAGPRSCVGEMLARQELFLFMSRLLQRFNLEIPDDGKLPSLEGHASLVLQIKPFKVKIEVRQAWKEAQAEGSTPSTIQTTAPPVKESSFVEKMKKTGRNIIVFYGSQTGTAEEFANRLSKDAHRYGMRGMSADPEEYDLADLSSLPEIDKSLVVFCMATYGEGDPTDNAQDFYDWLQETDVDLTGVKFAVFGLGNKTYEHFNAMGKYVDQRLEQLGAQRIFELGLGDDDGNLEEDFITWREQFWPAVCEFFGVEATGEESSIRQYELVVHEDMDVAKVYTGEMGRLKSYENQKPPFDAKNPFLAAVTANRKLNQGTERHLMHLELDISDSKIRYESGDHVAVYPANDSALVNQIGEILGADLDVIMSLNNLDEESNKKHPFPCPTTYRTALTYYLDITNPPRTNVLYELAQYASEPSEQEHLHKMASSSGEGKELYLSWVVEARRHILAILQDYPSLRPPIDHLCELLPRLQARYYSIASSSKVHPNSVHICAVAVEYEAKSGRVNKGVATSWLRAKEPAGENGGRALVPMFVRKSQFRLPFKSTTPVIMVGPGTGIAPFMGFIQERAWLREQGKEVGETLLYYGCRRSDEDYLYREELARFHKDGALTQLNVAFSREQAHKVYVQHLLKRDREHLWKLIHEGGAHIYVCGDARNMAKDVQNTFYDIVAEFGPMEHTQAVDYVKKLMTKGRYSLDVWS
Protocol: FIG. 11. […] Analysis was performed with reverse phase HPLC chromatography on a C18 column.
In the present example, purification of the fusion protein was achieved by chromatography on DE-52 and 2', 5' ADP-sepharose.

[2] = molecular target: T2, bovine P45017α (Bos taurus, UniProt P05185, W2A); assay: Substrate-induced difference spectra (substrate binding) in intact E. coli expressing P45017α; settings: steroid added until spectrally saturated
T2 construct: made in house; host or cells: E. coli JM109 harboring pCWmod17 (intact cells)
T2 sequence (P05185 1-509 W2A): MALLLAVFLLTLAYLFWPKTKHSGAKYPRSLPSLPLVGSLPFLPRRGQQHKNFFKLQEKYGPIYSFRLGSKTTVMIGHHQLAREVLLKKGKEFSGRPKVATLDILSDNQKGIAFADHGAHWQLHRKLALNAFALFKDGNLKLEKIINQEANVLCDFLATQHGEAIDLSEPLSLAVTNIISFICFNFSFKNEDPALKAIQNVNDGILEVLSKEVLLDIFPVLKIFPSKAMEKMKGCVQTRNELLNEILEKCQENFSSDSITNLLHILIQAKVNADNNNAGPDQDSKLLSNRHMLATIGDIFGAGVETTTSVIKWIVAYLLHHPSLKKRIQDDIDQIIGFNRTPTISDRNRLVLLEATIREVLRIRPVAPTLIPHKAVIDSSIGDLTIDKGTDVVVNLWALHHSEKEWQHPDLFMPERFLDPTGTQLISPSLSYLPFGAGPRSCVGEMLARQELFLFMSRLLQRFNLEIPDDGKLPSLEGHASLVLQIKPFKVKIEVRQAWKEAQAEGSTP
Protocol: The functional role of the binding of C21 steroids to the expressed P45017α was determined by incubation of transformed E. coli with radiolabeled substrates and HPLC analysis of substrates and products.
For the studies shown in FIG. 3B, substrate binding spectra were obtained by adding steroid to the indicated final concentration: (preg) pregnenolone 22 μM, (17OH preg) 17α-hydroxypregnenolone 40 μM, (DHEA) dehydroepiandrosterone 46 μM, (AD) androstenedione 46 μM. A volume of washed cells containing 1.6 nmoles P45017α was diluted to 6 ml with MOPS buffer and divided into the sample and reference cuvettes of an Aminco DW-2A spectrophotometer. A baseline tracing was recorded from 350 to 510 nm (representative shown). Steroid was added in 10 μl aliquots (1-2mg/ml in ethanol) to the sample with an equal volume of ethanol added to the reference. Additional aliquots of steroids and ethanol were added until the bacterially expressed P45017α was spectrally saturated (spectra shown).

[3] = molecular target: T3, human liver P450 1A2 (Homo sapiens, UniProt P05177, A19F/I20L/S18V); assay: Ethoxyresorufin and ethoxycoumarin O-deethylase activities of P450 1A2-containing E. coli membranes (fluorometric); type: biochemical; settings: O-deethylation; membranes plus purified reductase, 37° C.
T3 construct: made in house; host or cells: E. coli DH5α membranes, pCWori+ plasmid
T3 sequence (P05177 with tags, fused parts or gaps S18V/A19F/I20L limits assumed): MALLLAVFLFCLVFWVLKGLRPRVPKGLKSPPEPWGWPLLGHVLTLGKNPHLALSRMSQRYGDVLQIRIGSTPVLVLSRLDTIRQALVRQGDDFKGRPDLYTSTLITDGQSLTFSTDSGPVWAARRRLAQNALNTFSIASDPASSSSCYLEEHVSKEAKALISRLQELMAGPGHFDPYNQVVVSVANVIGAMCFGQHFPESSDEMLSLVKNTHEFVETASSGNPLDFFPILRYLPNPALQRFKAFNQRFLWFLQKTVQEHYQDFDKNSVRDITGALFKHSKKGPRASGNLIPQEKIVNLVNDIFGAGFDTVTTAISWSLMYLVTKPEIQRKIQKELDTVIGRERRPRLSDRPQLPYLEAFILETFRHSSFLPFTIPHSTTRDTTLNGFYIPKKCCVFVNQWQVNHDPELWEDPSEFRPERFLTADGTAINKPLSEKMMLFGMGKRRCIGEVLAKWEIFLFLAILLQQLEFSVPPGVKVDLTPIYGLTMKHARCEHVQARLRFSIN
Protocol: (§1) Membranes from P450 1A2-expressing E. coli were incubated with pure NADPH-cytochrome P450 reductase and the activity for the P450 directed oxidation of a number of substrates was determined.
(§2) Ethoxyresorufin and ethoxycoumarin O-deethylase activities were assayed fluorometrically using an Aminco-Bowman fluorometer as previously described (Burke & Mayer, 1974; Ullrich & Weber, 1972). […] Substrates were added as DMSO solutions in less than 0.1% of the final volume. The reactions were initiated by the addition of 10 μl of 50 mM NADPH.

[4] = molecular target: T4, bovine 17α-hydroxylase (P45017α) (Bos taurus, UniProt P05185, W2A); settings: for conversion by expressed P45017α (17α-hydroxylation / 17,20-lyase): intact E. coli, 2.5 μM steroid, 28° C., up to 8 hours, no added reductase
T4 sequence (P05185 1-509 W2A): T2 sequence (P05185 1-509 W2A)
Protocol: The initial substrates employed were pregnenolone, 17α-hydroxypregnenolone, and progesterone. For these studies, E. coli were grown and induced as described for the FIG. 2 studies. Cells were pelleted, washed once in MOPS buffer and resuspended in the same buffer at 1/20 volume of the original bacterial culture. A volume of concentrated cells corresponding to 3.7-4.2 nmoles P45017α was diluted to 5ml MOPS buffer containing 10 mM glucose, 2.5 μM steroid and 100,000 cpm/ml of ^3 H-labeled radioactive steroid. Samples were incubated at. 28° C. with gentle shaking. Aliquots (0.5 ml) were removed at 0, 0.5, 1, 2, 4, 6 and 8 hours after steroid addition. Following extraction of cells and culture media steroids were analyzed by HPLC as previously described (Estabrook et al., 1988).

[5] = substrate: C[C@]12CC[C@@H]3c4ccc(O)cc4CC[C@H]3[C@@H]1CC[C@@H]2O; assay: cells, lysate or membranes named; settings: other: estradiol to 2-OH metabolite, membranes plus purified reductase, 37° C., pH 7.5
[6] = substrate: CCOc1ccc2nc3ccc(=O)cc-3oc2c1; assay: Ethoxyresorufin and ethoxycoumarin O-deethylase activities of P450 1A2-containing E. coli membranes (fluorometric); type: biochemical, human; settings: other: O-deethylation, membranes plus purified reductase, 37° C., pH 7.4
Protocol: as §1, §2

[7] = membrane-bound fused enzyme (FIG. 10)
[8] = purified fusion protein incubated with NADPH (FIGS. 11, 12)

CC(=O)[C@@]1(O)CC[C@H]2[C@@H]3CC=C4C[C@@H](O)CC[C@]4(C)[C@H]3CC[C@@]21C [17α-hydroxyregnenolone, 17α-hydroxypregnenolone]
metabolism by membrane-bound fusion protein [1, 7]: lost the ability to catalyze the lyase reaction
metabolism by purified fusion protein [1, 8]: DHEA is formed in a time dependent manner
binding to expressed P45017α (substrate-induced difference spectrum) [2]: binding of substrates was also observed

CCOc1ccc2ccc(=O)oc2c1 [Ethoxycoumarin]
Vmax [3]: 0.3644 mol/min/mol P450

C[C@]12CCC(=O)C=C1CC[C@@H]1[C@@H]2CC[C@]2(C)C(=O)CC[C@@H]12 [androstenedione]
binding to expressed P45017α (substrate-induced difference spectrum) [2]: no binding

C[C@]12CC[C@H](O)CC1=CC[C@@H]1[C@@H]2CC[C@]2(C)C(=O)CC[C@@H]12 [dehydroepiandrosterone]
binding to expressed P45017α (substrate-induced difference spectrum) [2]: much less binding

CC(=O)N1CCN(c2ccc(OCC3COC(Cn4ccnc4)(c4ccc(Cl)cc4Cl)O3)cc2)CC1 (stereo not shown) [ketoconazole]
inhibition of 17α-hydroxylase activity ([4]; intact E. coli expressing bovine P45017α): inhibit 17α-hydroxylase activity

CC(=O)[C@H]1CC[C@H]2[C@@H]3CC=C4C[C@@H](O)CC[C@]4(C)[C@H]3CC[C@]12C [pregnenolone]
metabolism by membrane-bound fusion protein [1]: rather slow rate
metabolism by purified fusion protein [1]: remarkably high enzymatic activity
conversion by expressed P45017α (17α-hydroxylation / 17,20-lyase) [4]: readily converted to their 17α-hydroxylated products
binding to expressed P45017α (substrate-induced difference spectrum) [2]: binding of substrates was also observed

CC(=O)[C@H]1CC[C@H]2[C@@H]3CCC4=CC(=O)CC[C@]4(C)[C@H]3CC[C@]12C [progesterone]
metabolism by membrane-bound fusion protein [1, 7]: rather slow rate
metabolism by purified fusion protein [1, 8]: remarkably high enzymatic activity
conversion by expressed P45017α (17α-hydroxylation / 17,20-lyase) [4]: readily converted to their 17α-hydroxylated products
binding to expressed P45017α (substrate-induced difference spectrum) [2]: binding of substrates was also observed

B1: human liver P450 1A2 (Homo sapiens; A19F/I20L/S18V) (protein)
chain: T3 sequence (P05177 with tags, fused parts or gaps S18V/A19F/I20L limits assumed)
notes: made in house; host or cells: E. coli DH5α membranes, pCWori+ plasmid
Km [5]: 13 µM
kcat [5]: 1.5 mol/min/mol P450
Km [6]: 0.01 µM
kcat [6]: 2.5 mol/min/mol P450
